Test results from doi:10.1101/2025.06.05.657999, “A secreted fatty acid- and retinol- binding protein from Heligmosomoides polygyrus suppresses host macrophage polarization” (bioRxiv, 2025).

Tests used:
Hp-FAR-2 [1] = biological target: T1, Hp-FAR-2 (Heligmosomoides polygyrus, UniProt A0A183GLK6); test: fluorescence titration, one-site fit; assay type: binding
T1 construct: mature protein, residues 18-180 of 180 (signal peptide removed), N-terminal 6-His tag, pET histev N'term, E. coli BL21(DE3), Ni-NTA and SEC; ~17-18 kDa on SDS-PAGE

Hp-FAR-2 [2] = biological target: T1, Hp-FAR-2; test: fluorescence titration of retinol, one-site fit; assay type: binding

T1 sequence (A0A183GLK6 entry or part of it): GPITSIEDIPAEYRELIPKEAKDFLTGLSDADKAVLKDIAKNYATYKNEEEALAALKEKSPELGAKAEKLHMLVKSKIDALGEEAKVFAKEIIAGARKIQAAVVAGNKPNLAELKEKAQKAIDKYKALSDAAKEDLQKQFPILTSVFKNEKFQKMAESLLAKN

CN(C)c1cccc2c(S(=O)(=O)NCCCCCCCCCCC(=O)O)cccc12 [DAUDA]
Kd (Hp-FAR-2 [1]): 2650 nM

CC1=C(/C=C/C(C)=C/C=C/C(C)=C/CO)C(C)(C)CCC1 [retinol]
Kd (Hp-FAR-2 [2]): 6.55 µM
